Our source for the Kd values is BindingDB's records for patent US20250213571 (Alumis, 2025).

The assay deals with T1, Non-receptor tyrosine-protein kinase TYK2 [556-888] (Homo sapiens, UniProt P29597).
T1 construct: 556-888
Kind of assay: TYK2 JH2 Domain Binding Assay. On the procedure: Binding constants for the compounds described herein against the JH2 domain were determined by the following protocol for a KINOMEscan assay (DiscoveRx). A fusion protein of a partial length construct of human TYK2 (JH2domain-pseudokinase) (amino acids G556 to D888 based on reference sequence NP_003322.3) and the DNA binding domain of NFkB was expressed in transiently transfected HEK293 cells. From these HEK 293 cells, extracts were prepared in M-PER extraction buffer (Pierce) in the presence of Protease Inhibitor Cocktail Complete (Roche) and Phosphatase Inhibitor Cocktail Set II (Merck) per manufacturers' instructions. The TYK2 (JH2domain-pseudokinase) fusion protein was labeled with a chimeric double-stranded DNA tag containing the NFkB binding site fused to an amplicon for qPCR readout, which was added directly to the expression extract (the final concentration of DNA-tag in the binding reaction is 0.1 nM).

T1 sequence (P29597 556-888): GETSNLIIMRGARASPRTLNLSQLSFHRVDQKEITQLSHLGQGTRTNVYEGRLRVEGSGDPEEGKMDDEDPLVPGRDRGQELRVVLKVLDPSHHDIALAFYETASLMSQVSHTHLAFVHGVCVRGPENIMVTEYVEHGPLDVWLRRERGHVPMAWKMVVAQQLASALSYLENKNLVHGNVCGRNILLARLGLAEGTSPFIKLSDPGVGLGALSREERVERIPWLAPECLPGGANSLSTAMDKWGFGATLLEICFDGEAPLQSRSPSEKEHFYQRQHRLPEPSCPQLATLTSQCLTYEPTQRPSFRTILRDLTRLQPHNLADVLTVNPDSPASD

For orientation: Kd means a measure of binding affinity in units of concentration. Lower therefore signals tighter binding. The molecule `CNc1cc2nn3c(cnc13)C(=O)N[C@H](C)COCc1cc(c3c(c1)ncn3C)N2` [US20250213571, Compound 8] came in with a Kd of less than 0.01 µM.
